Experimental data reported in PubChem BioAssay (NCI).
“And” between values parts separate entries of the source, which are not always exact repeats. Equal values may be shown once.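 Dose response: 5 concentrations. Exposure: 48 h. Format: 96-well plates. Endpoint: linear interpolation; highest concentration if not reached. Here, GI50 denotes the concentration required for 50% inhibition of growth. TGI is the concentration that stops growth completely.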

Experiments:
Experiment in all cases: growth of human tumour cells (NCI), 48 h
[1] = tested on: MDA-MB-468 breast
[2] = tested on: 786-0 renal
[3] = tested on: A498 renal
[4] = tested on: A549 NSCLC
[5] = tested on: ACHN renal
[6] = tested on: BT-549 breast
[7] = tested on: CAKI-1 renal
[8] = tested on: CCRF-CEM leukemia
[9] = tested on: COLO 205 colon
[10] = tested on: DU-145 prostate
[11] = tested on: EKVX NSCLC
[12] = tested on: HCC-2998 colon
[13] = tested on: HCT-116 colon
[14] = tested on: HCT-15 colon
[15] = tested on: HL-60(TB) leukemia
[16] = tested on: HOP-62 NSCLC
[17] = tested on: HOP-92 NSCLC
[18] = tested on: HS 578T breast
[19] = tested on: HT29 colon
[20] = tested on: IGROV1 ovarian
[21] = tested on: K-562 leukemia
[22] = tested on: KM12 colon
[23] = tested on: LOX IMVI melanoma
[24] = tested on: M14 melanoma
[25] = tested on: MALME-3M melanoma
[26] = tested on: MCF7 breast
[27] = tested on: MDA-MB-231 breast
[28] = tested on: MDA-MB-435
[29] = tested on: NCI-H226 lung
[30] = tested on: NCI-H23 lung
[31] = tested on: NCI-H522 lung
[32] = tested on: NCI/ADR-RES ovarian
[33] = tested on: OVCAR-3 ovarian
[34] = tested on: OVCAR-4 ovarian
[35] = tested on: OVCAR-5 ovarian
[36] = tested on: OVCAR-8 ovarian
[37] = tested on: PC-3 prostate
[38] = tested on: RPMI-8226 leukemia
[39] = tested on: RXF 393 renal
[40] = tested on: SF-268 CNS
[41] = tested on: SF-295 CNS
[42] = tested on: SF-539 CNS
[43] = tested on: SK-MEL-2 melanoma
[44] = tested on: SK-MEL-28 melanoma
[45] = tested on: SK-MEL-5 melanoma
[46] = tested on: SK-OV-3 ovarian
[47] = tested on: SN12C renal
[48] = tested on: SNB-19 CNS
[49] = tested on: SNB-75 CNS
[50] = tested on: T-47D breast
[51] = tested on: TK-10 renal
[52] = tested on: U251 CNS
[53] = tested on: UACC-257 melanoma
[54] = tested on: UACC-62 melanoma
[55] = tested on: UO-31 renal

## O=[N+]([O-])/C=C\c1ccc2c(c1)OCO2
[1]
  GI50: 2.17 µM
  TGI: 5.82 µM

## Cn1cc(-c2cc(N)n3nc(-c4c[nH]c5ccccc45)cc3n2)c2cc(Br)cnc21
[2]
  GI50: 1.81 µM
  TGI: 3.45 µM
[3]
  GI50: 4.9 µM
  TGI: 19.1 µM
[4]
  GI50: 2.78 µM
  TGI: 11.1 µM
[5]
  GI50: 2.17 µM
  TGI: 6.21 µM
[6]
  GI50: 4.1 µM
  TGI: 18 µM
[7]
  GI50: 1.69 µM
  TGI: 3.87 µM
[8]
  GI50: 3.71 µM
  TGI: > 100 µM
[9]
  GI50: 1.96 µM
  TGI: 3.59 µM
[10]
  GI50: 3.58 µM
  TGI: 12.2 µM
[11]
  GI50: 3.14 µM
  TGI: 13.7 µM
[12]
  GI50: 1.65 µM
  TGI: 3.08 µM
[13]
  GI50: 1.82 µM
  TGI: 3.39 µM
[14]
  GI50: 1.7 µM
  TGI: 3.51 µM
[15]
  GI50: 2.01 µM
  TGI: 4.67 µM
[16]
  GI50: 2.12 µM
  TGI: 5.44 µM
[17]
  GI50: 1.65 µM
  TGI: 3.44 µM
[18]
  GI50: 2.61 µM
  TGI: 14.9 µM
[19]
  GI50: 1.8 µM
  TGI: 3.61 µM
[20]
  GI50: 3.29 µM
  TGI: 13.2 µM
[21]
  GI50: 2.88 µM
  TGI: > 100 µM
[22]
  GI50: 1.79 µM
  TGI: 3.98 µM
[23]
  GI50: 1.64 µM
  TGI: 2.99 µM
[24]
  GI50: 1.91 µM
  TGI: 3.87 µM
[25]
  GI50: 2.14 µM
  TGI: 4.52 µM
[26]
  GI50: 1.95 µM
  TGI: 4.58 µM
[27]
  GI50: 1.79 µM
  TGI: 3.91 µM
[28]
  GI50: 1.93 µM
  TGI: 3.96 µM
[1]
  GI50: 2.23 µM
  TGI: 5.42 µM
[29]
  GI50: 3.29 µM
  TGI: 16.3 µM
[30]
  GI50: 1.87 µM
  TGI: 4.16 µM
[31]
  GI50: 1.84 µM
  TGI: 3.67 µM
[32]
  GI50: 2.21 µM
  TGI: 5.16 µM
[33]
  GI50: 1.74 µM
  TGI: 3.37 µM
[34]
  GI50: 2.7 µM
  TGI: 9.4 µM
[35]
  GI50: 1.82 µM
  TGI: 4.94 µM
[36]
  GI50: 3.22 µM
  TGI: 15.2 µM
[37]
  GI50: 2.41 µM
  TGI: 7.91 µM
[38]
  GI50: 3.07 µM
  TGI: 10.5 µM
[39]
  GI50: 2.54 µM
  TGI: 6.15 µM
[40]
  GI50: 2.42 µM
  TGI: 7.66 µM
[41]
  GI50: 1.81 µM
  TGI: 3.87 µM
[42]
  GI50: 1.67 µM
  TGI: 3.11 µM
[43]
  GI50: 1.99 µM
  TGI: 4.48 µM
[44]
  GI50: 2.18 µM
  TGI: 5.6 µM
[45]
  GI50: 3.46 µM
  TGI: 13.9 µM
[46]
  GI50: 5.91 µM
  TGI: 34.8 µM
[47]
  GI50: 5.02 µM
  TGI: 21.1 µM
[48]
  GI50: 2.76 µM
  TGI: 8.76 µM
[49]
  GI50: 1.7 µM
  TGI: 17.1 µM
[50]
  GI50: 3.22 µM
  TGI: 14.3 µM
[51]
  GI50: 2.69 µM
  TGI: 6.3 µM
[52]
  GI50: 2.02 µM
  TGI: 4.53 µM
[53]
  GI50: 3.5 µM
  TGI: 18.4 µM
[54]
  GI50: 1.66 µM
  TGI: 3.28 µM
[55]
  GI50: 2.48 µM
  TGI: 10.6 µM

## CCc1ccc(C2=C(O)C(=O)C(c3ccc(CC)cc3)=C(O)C2=O)cc1
[1]
  GI50: 1.86 µM
  TGI: 6.26 µM

## CC(=O)Oc1ccc2c(c1)CC[C@@H]1C2[C@@H](O[N+](=O)[O-])C[C@@]2(C)C1CC[C@@H]2O (some centres not stated)
[1]
  GI50: 22.5 µM
  TGI: 89.2 µM

## CCCCc1cc(O)ccc1O
[1]
  GI50: 14 µM
  TGI: 31.7 µM

## Cc1ccc(S(=O)(=O)NCCN2c3nc4ccccc4cc3Sc3cc4ccccc4nc32)cc1
[1]
  GI50: 13.1 µM
  TGI: > 100 µM

## O=C(/C=C/c1ccc([N+](=O)[O-])o1)NNC(=O)c1cc2ccccc2cc1O
[1]
  GI50: 0.721 µM
  TGI: 3.59 µM

## OC1CCC(Oc2cccc3cnc(Nc4ccc5nc[nH]c5c4)nc23)CC1 (configuration not stated)
[1]
  GI50: 0.327 µM
  TGI: 1.37 µM

## O=C1NC(=O)C(c2ccccc2Cl)=C1Nc1cccc(O)c1
[1]
  GI50: 0.706 µM
  TGI: 7.16 µM

## CC/C=C\C[C@H](O)C/C=C1/C(=O)C=C[C@@H]1C/C=C\CCCC(N)=O
[1]
  GI50: 1.12 µM
  TGI: 2.86 µM

## COc1ccc(-c2cn3ccnc3c(-c3ccc4ncn(C5CCCCC5)c4c3)n2)cc1
[1]
  GI50: 0.863 µM
  TGI: > 100 µM

## COC(=O)c1ccc2c(c1)c1c(C)c3cnccc3c(C)c1n2C
[1]
  GI50: 0.225 µM
  TGI: 0.677 µM

## Cn1cnc([N+](=O)[O-])c1Sc1ncnc2nc[nH]c12
[1]
  GI50: 2.1 µM and 3.37 µM
  TGI: 70.3 µM and > 100 µM

## C=C(CNCCO)[C@@H]1CC[C@]2(CO)CC[C@]3(C)[C@H](CC[C@@H]4[C@@]5(C)CCC(NCCc6ccc(O)cc6)C(C)(C)[C@@H]5CC[C@]43C)[C@@H]12 (some centres not stated)
[1]
  GI50: 0.782 µM
  TGI: 2.34 µM

## CCN(CC)CC(C)Nc1ccc(C)c2sc3ccccc3c(=O)c12 (configuration not stated)
[1]
  GI50: 2.57 µM
  TGI: 7.57 µM

## COc1cccc2c(=O)c3c(sc12)c(NCCCN)nc1ccccc13
[1]
  GI50: 1.63 µM
  TGI: 3.2 µM

## CCC(=O)N1C/C(=C/c2ccc(OC)cc2)C(=O)/C(=C/c2ccc(OC)cc2)C1
[1]
  GI50: 1.85 µM
  TGI: 4.92 µM

## COc1cccc(C2c3cc4c(cc3OC(N3CCOCC3)C2C)OCO4)c1O (configuration not stated)
[1]
  GI50: 4.26 µM
  TGI: > 100 µM

## O=Nc1c2cccnc2n2nnc3ccc(Cl)cc3c12
[1]
  GI50: 0.136 µM
  TGI: 0.701 µM

## CC1=CC[C@@H]2C(C)(C)[C@@H](O)CC[C@@]2(C)[C@@H]1COc1ccc2ccc(=O)oc2c1
[1]
  GI50: 3.11 µM
  TGI: 15 µM

## Cc1cc(O)cc(C)c1/C=C/c1cncc(C(=O)N(C)C)c1
[1]
  GI50: > 25 µM
  TGI: > 25 µM

## C=C1C(=O)O[C@H]2[C@H]1CC/C(COC(=O)c1ccc(C(=O)O)s1)=C\CC[C@@]1(C)O[C@@H]21
[1]
  GI50: 1.22 µM
  TGI: 3.09 µM

## Cc1ccc2c(c1)sc(-c1ccc(N(C)C)cc1)[n+]2C
[1]
  GI50: 0.302 µM
  TGI: 5.74 µM

## CCOC(=O)/C=C/c1ccc(C(=O)OCC)[nH]1
[1]
  GI50: 2.53 µM
  TGI: 8.16 µM

## CC1(C)C(=O)/C(=C\c2ccco2)C[C@]2(C)[C@H]3CC=C4[C@@H]5C[C@](C)(C(=O)O)CC[C@]5(C)CC[C@@]4(C)[C@]3(C)CC[C@@H]12
[1]
  GI50: 10.7 µM
  TGI: 26.5 µM

## O=C(Nc1ccc(Br)cc1)c1cc(Br)cc(Br)c1O
[1]
  GI50: 2.32 µM
  TGI: 5.66 µM

## CCN(CC)C(=S)SSC1CCCCC1
[1]
  GI50: 19.4 µM
  TGI: 49.4 µM

## CS(=O)(=O)Nc1cc(-c2ccc3ncc(C#N)c(NCc4ccccc4F)c3c2)cnc1Cl
[1]
  GI50: 0.0781 µM
  TGI: 1.08 µM

## CN(C)CCNc1cccc2sc3ccc(O)cc3c(=O)c12
[1]
  GI50: 1.96 µM
  TGI: 4.56 µM

## ClCCn1cnc2c(SCc3ccccc3)ncnc21
[1]
  GI50: 11.1 µM
  TGI: > 100 µM

## O=C(N/N=C/c1ccc(F)cc1)c1[nH]c2ccc(I)cc2c1-c1ccccc1
[1]
  GI50: 0.345 µM
  TGI: 13.9 µM

## Cc1ccc(-c2cc3nc(-c4ccccc4)nc(C(Cl)Cl)n3n2)cc1
[1]
  GI50: 0.383 µM
  TGI: 1.31 µM
